Data from PubChem BioAssay AID220 (DTP/NCI, 2004).
Several values for one entry are separate records, joined by “and”; a condition that tells them apart may be missing. Equal values may be shown once. Inconclusive results are not listed.

Tested on: CD8F1 mice, subcutaneous mammary adenocarcinoma, T/C%
Assay: NCI In Vivo Anticancer Drug Screen. Data for tumor model Mammary Adenocarcinoma CD8F1 (subcutaneous) in CD8F1
Settings: higher = larger tumour
In short: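 Ratio of treated to vehicle-control outcome, based on either survival or tumor size, in mice bearing transplantable tumors given the test compound.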

[1] = endpoint: median tumor weight (est.), dose: 12.5 mg/kg/injection, schedule: Q07DX005 (ip), vehicle: Klucel (hydroxypropylcellulose) (HPC)
[2] = endpoint: median tumor weight (est.), dose: 25.0 mg/kg/injection, schedule: Q07DX005 (ip), vehicle: Klucel (hydroxypropylcellulose) (HPC)
[3] = endpoint: median tumor weight (est.), dose: 50.0 mg/kg/injection, schedule: Q07DX005 (ip), vehicle: Klucel (hydroxypropylcellulose) (HPC)
[4] = endpoint: median tumor weight (est.), dose: 6.25 mg/kg/injection, schedule: Q07DX005 (ip), vehicle: saline with Tween-80
[5] = endpoint: median tumor weight (est.), dose: 12.5 mg/kg/injection, schedule: Q07DX005 (ip), vehicle: saline with Tween-80
[6] = endpoint: median tumor weight (est.), dose: 200.0 mg/kg/injection, schedule: Q07DX005 (ip), vehicle: Klucel (hydroxypropylcellulose) (HPC)
[7] = endpoint: median tumor weight (est.), dose: 400.0 mg/kg/injection, schedule: Q07DX005 (ip), vehicle: Klucel (hydroxypropylcellulose) (HPC)

NC(CCl)=NCC12CC3CC(CC(C3)C1)C2
T/C (endpoint: median tumor weight (est.), dose: 3.12 mg/kg/injection, schedule: Q07DX005 (ip), vehicle: Klucel (hydroxypropylcellulose) (HPC)): 114 % of control | T/C [1]: 104 % of control and 119 % of control | T/C [2]: 90 % of control | T/C [3]: 39 % of control and 51 % of control

COC(=Nc1ccccc1)SSC(C)C
T/C (endpoint: median tumor weight (est.), dose: 100.0 mg/kg/injection, schedule: Q07DX005 (ip), vehicle: saline with Tween-80): 43 % of control and 46 % of control

CCCC(=O)O
T/C (endpoint: median tumor weight change, dose: 7.81 mg/kg/injection, schedule: Q01DX001 (ip), vehicle: saline): 88 % of control | T/C (endpoint: median tumor weight change, dose: 15.62 mg/kg/injection, schedule: Q01DX001 (ip), vehicle: saline): 166 % of control | T/C (endpoint: median tumor weight change, dose: 31.25 mg/kg/injection, schedule: Q01DX001 (ip), vehicle: saline): 97 % of control | T/C (endpoint: median tumor weight change, dose: 62.5 mg/kg/injection, schedule: Q01DX001 (ip), vehicle: saline): 80 % of control | T/C (endpoint: median tumor weight change, dose: 125.0 mg/kg/injection, schedule: Q01DX001 (ip), vehicle: saline): 71 % of control

CCOC(=O)CNC(=O)CCCCSc1ncnc2nc[nH]c12
T/C (endpoint: mean tumor weight, dose: 20.0 mg/kg/injection, schedule: Q07DX005 (ip), vehicle: saline): 121 % of control | T/C (endpoint: mean tumor weight, dose: 40.0 mg/kg/injection, schedule: Q07DX005 (ip), vehicle: saline): 84 % of control | T/C (endpoint: mean tumor weight, dose: 80.0 mg/kg/injection, schedule: Q07DX005 (ip), vehicle: saline): 48 % of control | T/C (endpoint: mean tumor weight, dose: 160.0 mg/kg/injection, schedule: Q07DX005 (ip), vehicle: saline): 39 % of control | T/C (endpoint: mean tumor weight, dose: 320.0 mg/kg/injection, schedule: Q07DX005 (ip), vehicle: saline): 67 % of control | T/C (endpoint: mean tumor weight, dose: 640.0 mg/kg/injection, schedule: Q07DX005 (ip), vehicle: saline): 45 % of control | T/C (endpoint: median tumor weight (est.), dose: 20.0 mg/kg/injection, schedule: Q07DX004 (ip), vehicle: saline): 78 % of control | T/C (endpoint: median tumor weight (est.), dose: 40.0 mg/kg/injection, schedule: Q07DX004 (ip), vehicle: saline): 63 % of control | T/C (endpoint: median tumor weight (est.), dose: 80.0 mg/kg/injection, schedule: Q07DX004 (ip), vehicle: saline): 40 % of control | T/C (endpoint: median tumor weight (est.), dose: 160.0 mg/kg/injection, schedule: Q07DX004 (ip), vehicle: saline): 97 % of control | T/C (endpoint: median tumor weight (est.), dose: 320.0 mg/kg/injection, schedule: Q07DX004 (ip), vehicle: saline): 109 % of control

C/C=C/C1=CC(=O)C(O)C1O (stereo unspecified)
T/C (endpoint: median tumor weight (est.), dose: 45.0 mg/kg/injection, schedule: Q07DX005 (ip), vehicle: water): 122 % of control | T/C (endpoint: median tumor weight (est.), dose: 90.0 mg/kg/injection, schedule: Q07DX005 (ip), vehicle: water): 78 % of control | T/C (endpoint: median tumor weight (est.), dose: 180.0 mg/kg/injection, schedule: Q07DX005 (ip), vehicle: water): 107 % of control

C/C=C\C1OC1(C)c1cc(=O)c2c(C)cc3c(c2o1)C(=O)c1c(O)c(C2CC(C)(N(C)C)C(OC(C)=O)C(C)O2)cc(C2CC(N(C)C)C(O)C(C)O2)c1C3=O (stereo unspecified)
T/C (endpoint: median tumor weight change, dose: 0.31 mg/kg/injection, schedule: Q01DX001 (ip), vehicle: saline + alcohol): 69 % of control | T/C (endpoint: median tumor weight change, dose: 0.62 mg/kg/injection, schedule: Q01DX001 (ip), vehicle: saline + alcohol): 85 % of control | T/C (endpoint: median tumor weight change, dose: 1.25 mg/kg/injection, schedule: Q01DX001 (ip), vehicle: saline + alcohol): 70 % of control | T/C (endpoint: median tumor weight change, dose: 2.5 mg/kg/injection, schedule: Q01DX001 (ip), vehicle: saline + alcohol): 31 % of control | T/C (endpoint: median tumor weight change, dose: 5.0 mg/kg/injection, schedule: Q01DX001 (ip), vehicle: saline + alcohol): 34 % of control | T/C (endpoint: median tumor weight change, dose: 10.0 mg/kg/injection, schedule: Q01DX001 (ip), vehicle: saline + alcohol): 25 % of control

COc1cccc2c1C(=O)c1c(O)c3c(c(O)c1C2=O)C[C@@](O)(C(C)=O)C[C@@H]3OC1CC(N(Cc2ccccc2)Cc2ccccc2)C(O)C(C)O1 (stereo partly specified)
T/C (endpoint: median tumor weight (est.), dose: 1.56 mg/kg/injection, schedule: Q07DX005 (ip), vehicle: saline with Tween-80): 68 % of control | T/C (endpoint: median tumor weight (est.), dose: 3.12 mg/kg/injection, schedule: Q07DX005 (ip), vehicle: saline with Tween-80): 72 % of control | T/C [4]: 75 % of control | T/C [5]: 29 % of control | T/C (endpoint: median tumor weight (est.), dose: 25.0 mg/kg/injection, schedule: Q07DX005 (ip), vehicle: saline with Tween-80): 9 % of control

Ic1ncnc2c1ncn2C1CCCO1 (stereo unspecified)
T/C [2]: 36 % of control | T/C [6]: 55 % of control and 64 % of control | T/C [7]: 41 % of control

C=C1C(=O)C2=CC1CCC(=O)C1(C)CCC(OC(C)=O)C(C)(C)C1CC2O (stereo unspecified)
T/C (endpoint: median tumor weight change, dose: 37.5 mg/kg/injection, schedule: Q01DX001 (ip), vehicle: Klucel (hydroxypropylcellulose) (HPC)): 83 % of control | T/C (endpoint: median tumor weight change, dose: 75.0 mg/kg/injection, schedule: Q01DX001 (ip), vehicle: Klucel (hydroxypropylcellulose) (HPC)): 88 % of control | T/C (endpoint: median tumor weight change, dose: 150.0 mg/kg/injection, schedule: Q01DX001 (ip), vehicle: Klucel (hydroxypropylcellulose) (HPC)): 30 % of control

O=[N+]([O-])c1ccc(Sc2ccncn2)c([N+](=O)[O-])c1
T/C (endpoint: median tumor weight change, dose: 62.5 mg/kg/injection, schedule: Q01DX001 (ip), vehicle: saline with Tween-80): 108 % of control | T/C (endpoint: median tumor weight change, dose: 125.0 mg/kg/injection, schedule: Q01DX001 (ip), vehicle: saline with Tween-80): 62 % of control

N#Cc1nc(C#N)c(Sc2ccccc2)c(Sc2ccccc2)c1Sc1ccccc1
T/C [4]: 165 % of control | T/C [5]: 113 % of control

CC[As](=O)(O)CC
T/C (endpoint: mean tumor weight, dose: 12.5 mg/kg/injection, schedule: Q07DX005 (ip), vehicle: saline): 100 % of control | T/C (endpoint: mean tumor weight, dose: 12.5 mg/kg/injection, schedule: Q07DX007 (ip), vehicle: saline): 70 % of control | T/C (endpoint: mean tumor weight, dose: 25.0 mg/kg/injection, schedule: Q07DX005 (ip), vehicle: saline): 34 % of control | T/C (endpoint: mean tumor weight, dose: 25.0 mg/kg/injection, schedule: Q07DX007 (ip), vehicle: saline): 56 % of control | T/C (endpoint: mean tumor weight, dose: 50.0 mg/kg/injection, schedule: Q07DX007 (ip), vehicle: saline): 38 % of control | T/C (endpoint: mean tumor weight, dose: 100.0 mg/kg/injection, schedule: Q07DX005 (ip), vehicle: saline): 98 % of control | T/C (endpoint: mean tumor weight, dose: 100.0 mg/kg/injection, schedule: Q07DX007 (ip), vehicle: saline): 111 % of control | T/C (endpoint: mean tumor weight, dose: 200.0 mg/kg/injection, schedule: Q07DX005 (ip), vehicle: saline): 41 % of control | T/C (endpoint: mean tumor weight, dose: 200.0 mg/kg/injection, schedule: Q07DX007 (ip), vehicle: saline): 53 % of control | T/C (endpoint: median tumor weight (est.), dose: 12.5 mg/kg/injection, schedule: Q07DX005 (ip), vehicle: saline): 96 % of control and 119 % of control | T/C (endpoint: median tumor weight (est.), dose: 25.0 mg/kg/injection, schedule: Q07DX005 (ip), vehicle: saline): 62 % of control and 79 % of control | T/C (endpoint: median tumor weight (est.), dose: 50.0 mg/kg/injection, schedule: Q07DX005 (ip), vehicle: saline): 121 % of control | T/C (endpoint: median tumor weight (est.), dose: 200.0 mg/kg/injection, schedule: Q07DX005 (ip), vehicle: saline): 20 % of control and 41 % of control and 43 % of control

CC(=O)OC1(C)CC(C)C(=O)C(C(O)CC2CC(=O)NC(=O)C2)C1 (stereo unspecified)
T/C (endpoint: median tumor weight (est.), dose: 94.0 micrograms/kg/injection, schedule: Q07DX005 (ip), vehicle: saline): 57 % of control | T/C (endpoint: median tumor weight (est.), dose: 188.0 micrograms/kg/injection, schedule: Q07DX005 (ip), vehicle: saline): 34 % of control | T/C (endpoint: median tumor weight (est.), dose: 375.0 micrograms/kg/injection, schedule: Q07DX005 (ip), vehicle: saline): 37 % of control | T/C (endpoint: median tumor weight (est.), dose: 750.0 micrograms/kg/injection, schedule: Q07DX005 (ip), vehicle: saline): 32 % of control

CC(=O)[O][Pb]([O]C(C)=O)([c]1ccccc1)[c]1ccccc1
T/C [1]: 124 % of control | T/C [2]: 80 % of control | T/C [3]: 65 % of control | T/C (endpoint: median tumor weight (est.), dose: 100.0 mg/kg/injection, schedule: Q07DX005 (ip), vehicle: Klucel (hydroxypropylcellulose) (HPC)): 86 % of control | T/C [6]: 75 % of control | T/C [7]: 29 % of control

Nc1ccc2nc3ccc(N)cc3[n+](-c3ccccc3)c2c1
T/C (endpoint: median tumor weight (est.), dose: 6.25 mg/kg/injection, schedule: Q07DX005 (ip), vehicle: Klucel (hydroxypropylcellulose) (HPC)): 90 % of control | T/C (endpoint: median tumor weight (est.), dose: 6.25 mg/kg/injection, schedule: Q07DX005 (ip), vehicle: suspension in saline): 72 % of control | T/C [1]: 35 % of control | T/C (endpoint: median tumor weight (est.), dose: 12.5 mg/kg/injection, schedule: Q07DX005 (ip), vehicle: suspension in saline): 64 % of control | T/C [2]: 80 % of control | T/C (endpoint: median tumor weight (est.), dose: 25.0 mg/kg/injection, schedule: Q07DX005 (ip), vehicle: suspension in saline): 95 % of control | T/C [3]: 45 % of control

CC(C)[NH-].CC(C)[NH-].[Cl][Pt+2][Cl]
T/C (endpoint: median tumor weight (est.), dose: 3.12 mg/kg/injection, schedule: Q07DX005 (ip), vehicle: dextrose): 106 % of control | T/C (endpoint: median tumor weight (est.), dose: 6.25 mg/kg/injection, schedule: Q07DX005 (ip), vehicle: dextrose): 80 % of control | T/C (endpoint: median tumor weight (est.), dose: 12.5 mg/kg/injection, schedule: Q07DX005 (ip), vehicle: dextrose): 42 % of control | T/C (endpoint: median tumor weight (est.), dose: 25.0 mg/kg/injection, schedule: Q07DX005 (ip), vehicle: dextrose): 76 % of control | T/C (endpoint: median tumor weight (est.), dose: 50.0 mg/kg/injection, schedule: Q07DX005 (ip), vehicle: dextrose): 27 % of control | T/C (endpoint: median tumor weight (est.), dose: 100.0 mg/kg/injection, schedule: Q07DX005 (ip), vehicle: dextrose): 42 % of control
